From ChEMBL document CHEMBL4422676, “Fragment-based screening of programmed death ligand 1 (PD-L1)” (Bioorg Med Chem Lett, 2019)
pKd: −log10 of the molar value.

Tests used:
[1] = target: Programmed cell death 1 ligand 1 (Homo sapiens, UniProt Q9NZQ7, H140E); test: Binding affinity to human 15N-labelled 6His-tagged PDL1 IgV domain H140E mutant (18 to 134 residues) expressed in Escherichia coli BL21 (DE3) by 1D-1H NMR spectroscopy; details: for pKd: read-out: Kd
[2] = test system: Programmed cell death 1 ligand 1 (Homo sapiens), Q9NZQ7 [UNDEFINED MUTATION]; test: Displacement of 15N-labelled PD1 from human 15N-labelled 6His-tagged PDL1 IgV domain H140E mutant (18 to 134 residues) at 800 uM assessed as rescue signal intensity by HMQC spectra analysis
[3] = test system: Programmed cell death 1 ligand 1 (Homo sapiens), Q9NZQ7 [UNDEFINED MUTATION]; test: Displacement of 15N-labelled PD1 from human 15N-labelled 6His-tagged PDL1 IgV domain H140E mutant (18 to 134 residues) at 2 mM assessed as rescue signal intensity by HMQC spectra analysis

Programmed cell death 1 ligand 1 (Homo sapiens), Q9NZQ7 [UNDEFINED MUTATION], sequence (Q9NZQ7 whole entry, looked up, stated change not applied, the tested form may be a part): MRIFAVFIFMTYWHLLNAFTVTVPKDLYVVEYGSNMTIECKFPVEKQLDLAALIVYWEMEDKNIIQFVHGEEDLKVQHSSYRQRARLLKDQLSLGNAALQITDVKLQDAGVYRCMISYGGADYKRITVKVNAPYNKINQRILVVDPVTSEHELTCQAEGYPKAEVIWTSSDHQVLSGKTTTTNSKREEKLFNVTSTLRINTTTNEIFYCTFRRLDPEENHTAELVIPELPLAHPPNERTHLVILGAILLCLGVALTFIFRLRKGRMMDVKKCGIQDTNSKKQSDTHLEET
Programmed cell death 1 ligand 1, sequence (Q9NZQ7 whole entry, looked up, stated change not applied, the tested form may be a part): as above

`Cc1cc(Nc2ccc(N3CCCC3)cc2)ncn1` showed a pKd [1] of 2.52 and an Activity [2] of 1 to 15%.
`Cc1sc(N)nc1-c1ccc2c(c1)OCCO2` showed a pKd [1] of 2.92 and an Activity [2] of over 15%.
In the case of `CC(=O)Oc1ccc2c(c1)cc(C)n2C`, the Kd [1] was “Nd(Insoluble)” and the Activity [2] was over 15%.
With `CNCc1ccc(-c2cc(Cl)cc(Cl)c2)o1` the pKd [1] was 2.72 and the Activity [2] was over 15%.
For `Cc1nc2cc(-c3ccccc3)ccc2o1`, the Kd [1] was “Nd(Insoluble)” and the Activity [2] was 1 to 15%.
In the case of `COc1ccc2nc(NCc3cccnc3)sc2c1`, the pKd [1] was 2.54 and the Activity [2] was 1 to 15%.
For `Oc1ncnc2scc(-c3ccccc3)c12`, the Kd [1] was “Nd(Insoluble)”, the Activity [3] was 75% and the Activity [2] was over 15%.
With `COC(=O)c1[nH]cc(-c2ccccc2F)c1N` the Kd [1] was “Nd(Insoluble)” and the Activity [2] was 1 to 15%.
`CCN(CC)C(=O)c1sc2ccccc2c1Cl` showed a pKd [1] of 2.60 and an Activity [2] of over 15%.
